The text below walks through data of US20170105952A1, “HISTONE ACETYL TRANSFERASE ACTIVATORS AND HISTONE DEACETYLASE INHIBITORS IN THE TREATMENT OF ALCOHOLISM” (THE BOARD OF TRUSTEES OF THE UNIVERSITY OF ILLINOIS, priority 2006, published 2017).

For one assay, the system named is HAT. As to conditions: Mantelingu et al 2007; cited from earlier work.
The test system of assay [1] is ethanol-withdrawn SD rats. Description: Light/dark box exploration test of anxiety-like behaviors in ethanol-withdrawn rats. Format: in vivo.
Assay [2] concerns ethanol-withdrawn SD rats. Nature of the assay: Elevated-plus maze (EPM) test of anxiety-like behaviors in ethanol-withdrawn rats. Type of assay: in vivo. The protocol:
The effect of HDAC inhibition on anxiety-like behaviors of ethanol-withdrawn SD rats after chronic ethanol exposure was assayed using the class I and class II HDAC inhibitor trichostatin A (TSA). SD rats were fed with control or ethanol liquid diet, and ethanol-fed rats were withdrawn for 24 hours as described previously (Pandey et al, Alcohol Clin. Exp. Res. 27:396-409, 2003). Ethanol-withdrawn and control rats were treated with TSA or vehicle (1:5 dilution of DMSO with phosphate-buffered saline) two hours before measuring anxiety-like behaviors using the elevated-plus maze (EPM) test. The EPM is a cross-shaped elevated apparatus consisting of two open arms and two closed arms arranged directly opposite each other and connected to a central platform. To measure anxiety-like behaviors, a test rat was habituated for five-minutes in the test room and then placed on the central platform facing an open arm. The number of entries to each type of arm over a five-minute period was observed and recorded. EPM test results were reported as the mean±SEM of the percent of open-arm entries and the percent of time spent on the open arms. These collectively are referred to as open-arm activity. The general activity of each rat was measured by calculating the sum of open- and closed-arm entries. In the EPM test, ethanol withdrawal after chronic ethanol exposure produced increased anxiety-like behaviors as measured by a reduction in open-arm activities. […]
The effect of Sir-2 inhibition on anxiety-like behaviors in ethanol-withdrawn SD rats after chronic ethanol exposure was assayed by central amygdaloid infusion of the Sir-2 inhibitor, sirtinol. […] Sirtinol (0.5 μl of 25 μM sirtinol) or vehicle (0.5 μl of 0.3% DMSO diluted with artificial CSF) was infused into the CeA of ethanol-withdrawn and control rats, and anxiety was measured after two hours. Anxiety-like behaviors in rats were then measured in the EPM test. […]

The test system of a further assay is Limk1. Nature of the assay: Limk1 protein levels in amygdaloid structures of ethanol-withdrawn rats (gold-immunolabeling). Particulars: SAHA 50 mg/kg intraperitoneally, decrease seen in CeA and MeA, FIG. 5. Type of assay: in vivo. How it is done:
The effect on protein levels of Limk1 in the amygdala of ethanol-withdrawn SD rats after chronic ethanol exposure was measured. SD rats were fed with control or ethanol liquid diet, and ethanol-fed rats were withdrawn for 24 hours. […] Brains were collected after perfusion for Limk1 protein level measurement. Protein levels were measured in amygdaloid structures by gold-immunolabeling. Ethanol withdrawal, but not ethanol treatment, produced significant decreases in protein levels of Limk1 in the CeA and MeA, but not in the BLA.

Assay [3] relates to HDAC activity in the amygdala. Nature of the assay: HDAC activity in the amygdala of ethanol-withdrawn rats. Format: in vivo. How it is done: The effect on HDAC activity in the amygdala of ethanol-withdrawn SD rats after chronic ethanol exposure was measured. SD rats were fed with control or ethanol liquid diet, and ethanol-fed rats were withdrawn for 24 hours. Ethanol-withdrawn and control rats were treated with TSA or vehicle two hours before measuring HDAC activity. Ethanol withdrawal after chronic ethanol exposure produced an increase in HDAC activity in the amygdala of rats.
The effect on HDAC activity in the amygdala of ethanol-withdrawn SD rats after chronic ethanol exposure was measured. SD rats were fed with control or ethanol liquid diet, and ethanol-fed rats were withdrawn for 24 hours. […] Two hours after injections, brains were collected to measure HDAC activity. The nuclear and cytosolic fractions of amygdala were prepared and HDAC activities were measured using an HDAC ELISA kit. Ethanol withdrawal after chronic ethanol exposure produced an increase in nuclear, but not cytosolic, HDAC activity in the amygdala of rats.

Assay [4] concerns acetylated histone H3. Nature of the assay: Acetylated histone H3 protein levels in amygdaloid structures of ethanol-withdrawn rats (gold-immunolabeling). Format: in vivo. As to conditions: for histone H3-K9 acetylation: SAHA 50 mg/kg intraperitoneally, FIG. 3. How it is done:
(§1) The effect of HDAC inhibition on acetylated histone H3, CBP, and Sir-2 (HDAC III) level in ethanol-withdrawn SD rats after chronic ethanol exposure was assayed using trichostatin A (TSA). SD rats were fed control or ethanol liquid diet, and ethanol-fed rats were withdrawn for 24 hours. Ethanol-withdrawn and control rats were treated with TSA or vehicle, and protein levels were measured in amygdaloid structures by gold-immunolabeling. In the CeA and MeA, but not in the BLA, ethanol withdrawal produced significant reductions in protein levels of acetylated histone H3 and CBP-HAT, and produced an increase in protein levels of Sir-2. […] Thus, histone acetylation is normalized by TSA treatment due to inhibition of HDAC activity.
In the CeA and MeA, but not in the BLA, ethanol withdrawal produced significant reductions in protein levels of acetylated histone H3-K9.

Assay [5] concerns alcohol-preferring (P) rats. Nature of the assay: Two-bottle voluntary alcohol intake in alcohol-preferring rats. As to conditions: TSA 2 mg/kg intraperitoneal daily, last three days of 9% alcohol drinking. Format: in vivo. How it is done:
(§2) The effect of HDAC inhibition on the alcohol consumption of alcohol-preferring (P) and non-preferring (NP) rats was assayed. Selective breeding has produced the P and NP rat lines with high and low alcohol preference, respectively (Li T. K, Lumeng L, Doolittle D P, Behav. Genet. 23:163-170, 1993; McKinzie D L, Nowak K L, Murphy J M, Li T K, Lumeng L, McBride W J, Alcohol Clin. Exp. Res. 22:1584-1590, 1998). P and NP rats were habituated to drink water equally from two bottles. One bottle was then replaced with 7% ethanol for the first three days and 9% ethanol for the next seven days. During the last three days of 9% alcohol drinking, rats were treated with TSA daily (2 mg/kg intraperitoneal injection). […] As a result of the large reduction in voluntary alcohol consumption by the alcohol-preferring animal model when treated with an HDAC inhibitor, it is expected that HDAC inhibitors also prevent the development of alcohol dependence.

The next assay has as its system Sir-2 (HDAC III). Description: Sir-2 protein levels in amygdaloid structures of ethanol-withdrawn rats (gold-immunolabeling). Format: in vivo. Particulars: TSA. The protocol: as §1
Assay [6] concerns class I and class II HDACs. Particulars: Yoshida et al 1990; cited from earlier work.
Another assay concerns NPY. Description: NPY mRNA and protein levels in amygdaloid structures of ethanol-withdrawn rats. Format: in vivo. Particulars: TSA, reduction seen in CeA and MeA. The protocol: The effect of HDAC inhibition on NPY mRNA and protein levels in ethanol-withdrawn SD rats after chronic ethanol exposure was also assayed using trichostatin A (TSA). SD rats were fed control or ethanol liquid diet, and ethanol-fed rats were withdrawn for 24 hours. Ethanol-withdrawn and control rats were treated with TSA or vehicle, and mRNA and protein levels were measured in amygdaloid structures. In the CeA and MeA, but not in the BLA, ethanol withdrawal produced significant reductions in both mRNA and protein levels of NPY. […] Thus, NPY expression is also normalized by TSA treatment during ethanol withdrawal after chronic ethanol exposure.

The subject of another assay is non-preferring (NP) rats. Nature of the assay: Two-bottle voluntary alcohol intake in non-preferring rats. Format: in vivo. As to conditions: TSA 2 mg/kg intraperitoneal daily, last three days of 9% alcohol drinking. How it is done: as §2
Assay [7] concerns CBP. Nature of the assay: CBP protein levels in amygdaloid structures of ethanol-withdrawn rats (gold-immunolabeling). Format: in vivo. Particulars: TSA. The protocol: as §1
Another assay relates to Sir-2. Particulars: Landry et al 2000; Blander et al 2004; cited from earlier work.
In another assay the target is p300 HAT (Homo sapiens, UniProt Q09472). Particulars: Balasubramanyam et al 2003; cited from earlier work.
The subject of a further assay is HDAC. Particulars: Balasubramanyam et al 2003; cited from earlier work.
Another assay concerns acetylated histone H4. As to conditions: acute ethanol vs n-saline. How it is done: (§3) The protein levels of acetylated histone H3, acetylated histone H4, and CBP in the CeA structures of n-saline- or acute ethanol-treated rats were measured by immunohistochemistry.
The subject of assay [8] is acetylated histone H3. Particulars: acute ethanol vs n-saline. How it is done: as §3
Assay [9] deals with CBP. As to conditions: acute ethanol vs n-saline. The protocol:
as §3

The subject of a further assay is HDACs in the amygdala. Particulars: ethanol 1 g/kg intraperitoneal injection, after one hour. The protocol: (§4) The effect of acute ethanol exposure on HDAC activity, histone acetylation level, and CBP level was measured in Sprague-Dawley (SD) rats. Rats were injected with ethanol (1 g/kg intraperitoneal injection) or n-saline, and after one hour, anxiolytic responses were measured. […] The amygdala was then dissected out, and HDAC activity was measured.

The next assay has as its system Sprague-Dawley (SD) rats. Particulars: ethanol 1 g/kg intraperitoneal injection vs n-saline, after one hour. How it is done:
as §4

“Also recorded” adds a separate entry of the source. Where two headings read alike, the source gives them in different places.

p300 HAT, sequence (Q09472 whole entry, species assumed): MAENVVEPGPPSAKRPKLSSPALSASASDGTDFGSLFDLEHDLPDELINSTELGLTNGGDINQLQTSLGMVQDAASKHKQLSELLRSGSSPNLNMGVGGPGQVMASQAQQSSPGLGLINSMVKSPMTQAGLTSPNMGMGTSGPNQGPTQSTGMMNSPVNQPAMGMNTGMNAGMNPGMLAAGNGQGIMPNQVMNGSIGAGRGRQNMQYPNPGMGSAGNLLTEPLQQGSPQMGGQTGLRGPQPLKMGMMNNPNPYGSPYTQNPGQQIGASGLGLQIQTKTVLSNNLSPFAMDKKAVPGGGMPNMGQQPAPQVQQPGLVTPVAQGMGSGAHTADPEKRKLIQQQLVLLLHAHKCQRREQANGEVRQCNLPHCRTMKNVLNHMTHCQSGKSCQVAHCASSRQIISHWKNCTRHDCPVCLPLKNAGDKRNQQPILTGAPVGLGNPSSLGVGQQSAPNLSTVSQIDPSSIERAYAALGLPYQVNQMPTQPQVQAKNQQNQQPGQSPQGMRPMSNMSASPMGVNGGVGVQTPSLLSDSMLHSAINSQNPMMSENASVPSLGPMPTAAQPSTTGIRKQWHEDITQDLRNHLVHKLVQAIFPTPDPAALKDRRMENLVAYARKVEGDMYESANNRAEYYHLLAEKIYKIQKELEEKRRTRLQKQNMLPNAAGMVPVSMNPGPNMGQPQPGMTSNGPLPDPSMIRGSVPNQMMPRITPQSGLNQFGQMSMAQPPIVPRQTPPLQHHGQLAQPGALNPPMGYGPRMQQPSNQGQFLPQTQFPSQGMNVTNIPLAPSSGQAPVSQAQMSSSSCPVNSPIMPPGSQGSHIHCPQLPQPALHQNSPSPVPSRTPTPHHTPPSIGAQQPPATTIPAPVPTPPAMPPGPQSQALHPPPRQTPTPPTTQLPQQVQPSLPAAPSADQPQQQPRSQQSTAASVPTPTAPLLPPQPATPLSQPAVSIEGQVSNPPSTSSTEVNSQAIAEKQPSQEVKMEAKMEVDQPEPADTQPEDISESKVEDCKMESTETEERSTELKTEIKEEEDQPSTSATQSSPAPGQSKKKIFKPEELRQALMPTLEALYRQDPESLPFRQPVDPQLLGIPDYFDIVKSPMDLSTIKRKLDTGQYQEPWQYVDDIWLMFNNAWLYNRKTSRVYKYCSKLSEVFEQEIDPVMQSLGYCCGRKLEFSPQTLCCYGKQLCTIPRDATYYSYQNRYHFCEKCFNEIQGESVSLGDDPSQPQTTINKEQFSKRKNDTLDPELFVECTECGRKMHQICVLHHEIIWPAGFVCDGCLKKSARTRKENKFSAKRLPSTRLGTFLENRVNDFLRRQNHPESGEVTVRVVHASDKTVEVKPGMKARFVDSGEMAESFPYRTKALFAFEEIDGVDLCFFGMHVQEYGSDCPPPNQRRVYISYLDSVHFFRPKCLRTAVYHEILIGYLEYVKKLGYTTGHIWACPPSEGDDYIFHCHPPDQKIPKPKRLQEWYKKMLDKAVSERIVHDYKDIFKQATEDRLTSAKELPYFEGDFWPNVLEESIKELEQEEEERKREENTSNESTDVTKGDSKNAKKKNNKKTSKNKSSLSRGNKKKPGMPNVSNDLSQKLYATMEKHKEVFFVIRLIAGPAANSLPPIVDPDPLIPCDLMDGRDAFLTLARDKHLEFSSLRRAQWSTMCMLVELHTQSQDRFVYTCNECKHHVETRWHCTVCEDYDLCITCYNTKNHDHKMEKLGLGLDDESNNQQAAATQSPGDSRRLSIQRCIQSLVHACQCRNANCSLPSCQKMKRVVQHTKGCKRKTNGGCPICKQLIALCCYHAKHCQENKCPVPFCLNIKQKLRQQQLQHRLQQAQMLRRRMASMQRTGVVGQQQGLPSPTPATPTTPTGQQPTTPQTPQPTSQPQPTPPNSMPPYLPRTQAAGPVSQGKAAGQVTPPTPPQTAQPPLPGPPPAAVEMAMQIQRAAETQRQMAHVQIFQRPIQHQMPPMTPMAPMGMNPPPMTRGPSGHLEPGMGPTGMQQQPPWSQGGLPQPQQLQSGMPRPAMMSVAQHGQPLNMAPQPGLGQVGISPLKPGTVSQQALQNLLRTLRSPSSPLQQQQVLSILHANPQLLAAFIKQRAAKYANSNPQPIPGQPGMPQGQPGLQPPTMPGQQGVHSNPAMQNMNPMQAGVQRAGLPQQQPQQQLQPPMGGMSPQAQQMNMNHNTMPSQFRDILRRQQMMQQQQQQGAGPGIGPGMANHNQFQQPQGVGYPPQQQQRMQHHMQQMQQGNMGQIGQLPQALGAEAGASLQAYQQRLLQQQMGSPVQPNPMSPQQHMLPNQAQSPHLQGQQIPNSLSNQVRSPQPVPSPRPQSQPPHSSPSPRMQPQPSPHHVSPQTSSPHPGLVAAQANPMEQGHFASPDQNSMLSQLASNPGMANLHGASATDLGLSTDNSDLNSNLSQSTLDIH

Take `CCOc1ccccc1C(=O)Nc1ccc(Cl)c(C(F)(F)F)c1` [CTB, N-(4-chloro-3-trifluoromethyl-phenyl)-2-ethoxy-benzamide]: in the assay on HAT, the HAT activation entry is reported as “HAT activators”.
On to `O=C(CCCCCCC(=O)Nc1ccccc1)NO` [SAHA, suberoylanilide hydroxamic acid], for which the “anxiety-like behaviors (time spent in the light box)” value in assay [1] (SAHA 50 mg/kg intraperitoneally, 24 hours ethanol withdrawal, FIG. 1A) is recorded as “significantly reduced these anxiety-like behaviors”. Moreover, the “anxiety-like behaviors (open-arm activity) in EPM test” value (shortened to “anxiety-like behaviors … in EPM test”) in assay [2] (SAHA 50 mg/kg intraperitoneally, 24 hours ethanol withdrawal, FIG. 1B) is given as “prevented these anxiety-like behaviors”. Besides, in the assay on Limk1, the Limk1 protein levels entry was “normalized Limk1 levels”. For the same compound, the “withdrawal-induced increase in nuclear HDAC activity in the amygdala” value in assay [3] (SAHA 50 mg/kg intraperitoneally, two hours after injection, nuclear fraction, HDAC ELISA kit, FIG. 2) is listed as “attenuated this increase in nuclear HDAC activity”. Also, the “histone H3-K9 acetylation” value in the assay on acetylated histone H3 [4] (BLA) was “had no effects on histone H3-K9 acetylation”; with acetylated histone H3 [4] (CeA and MeA) it was “corrected the deficits in histone H3-K9 acetylation”.
For the compound `CC(/C=C/C(=O)NO)=C\[C@@H](C)C(=O)c1ccc(N(C)C)cc1` [TSA, trichostatin A], the values for the alcohol intake entry (in assay [5]; with non-preferring (NP) rats) were “significantly attenuated the alcohol intake” and “not in low alcohol-drinking NP rats”, respectively. For the same compound, the Sir-2 levels result in the assay on Sir-2 (HDAC III) is “did not modulate CBP and Sir-2 levels”. Also, the “anxiety-like behaviors (time spent in the light box)” value in assay [1] (TSA, 24 hours ethanol withdrawal after chronic ethanol) was “significantly reduced these anxiety-like behaviors”. Also, in assay [2] (TSA two hours before test, 24 hours ethanol withdrawal after chronic ethanol), the “anxiety-like behaviors … in EPM test” value was “restored these anxiety-like behaviors to normal levels; also recorded: prevented the development of anxiety-like behaviors”. In addition, the “inhibition of class I and class II HDACs” value in assay [6] is “potently inhibits class I and class II HDACs”. For the same compound, the “NPY mRNA and protein levels” value in the assay with NPY is “restored NPY levels to normal; also recorded: normalized the reduction in NPY expression”. The “withdrawal-induced increase in HDAC activity in the amygdala” value in [3] (TSA two hours before measurement, 24 hours ethanol withdrawal) was “completely prevented this increase in HDAC activity; also recorded: normalized the increase in HDAC activity”. Further, in the assay with acetylated histone H3 [4] (TSA, reduction seen in CeA and MeA), the “acetylated histone H3 levels” value is reported as “rescued acetylated histone H3 levels; also recorded: normalized the reduction in acetylation of histone H3”. The CBP levels entry in the assay with CBP [7] is “did not modulate CBP and Sir-2 levels”.
Take `CC(NC(=O)c1ccccc1/N=C/c1c(O)ccc2ccccc12)c1ccccc1` (stereo not shown) [sirtinol]: in the assay with Sir-2, the “inhibition of Sir-2” value was “specific inhibitor of Sir-2”. Moreover, in assay [2] (0.5 μl of 25 μM sirtinol infused into the CeA, two hours before test, 24 hours ethanol withdrawal), the “anxiety-like behaviors … in EPM test” value is “development of these anxiety-like behaviors was prevented”.
With `CCCCCCCCCCCCCCCc1cccc(OCC)c1C(=O)Nc1ccc(Cl)c(C(F)(F)F)c1` [CTPB, N-(4-chloro-3-trifluoromethyl-phenyl)-2-ethoxy-6-pentadecyl-benzamide], the “p300 HAT activity” value at p300 HAT was “activate p300 HAT activity”. Moreover, the HDAC activity result with HDAC was “without affecting HDAC activity”.
For the compound `CCO` [ethanol], the “protein level of acetylated histone H4” value in the assay on acetylated histone H4 (CeA) and in the assay with acetylated histone H4 (MeA) was “increased protein levels” in each case. In addition, the “protein level of acetylated histone H3” value in the assay with acetylated histone H3 [8] (BLA) was “not in basolateral amygdaloid (BLA) structures”; with acetylated histone H3 [8] (CeA), “increased protein levels”; in the assay with acetylated histone H3 [8] (MeA), “increased protein levels”. The “protein level of CBP” value in the assay with CBP [9] (BLA) was “not in basolateral amygdaloid (BLA) structures”; in the assay with CBP [9] (CeA) it was “increased protein levels”; with CBP [9] (MeA) it was “increased protein levels”. For the same compound, the “inhibition of HDAC activity in the amygdala compared to n-saline-treated rats” value in the assay with HDACs in the amygdala is recorded as 36%. In addition, in the assay on Sprague-Dawley (SD) rats, the anxiolytic responses entry is “anxiolytic effects”.
